Measurements published in patent US20250381161A1, “COMPOSITIONS AND METHODS FOR TREATING HEARING AND OCULAR DISORDERS” (Anida Pharma Inc., priority 2022, published 2025).

Experiment: Release of compound 1 in artificial tear medium from dialysis tubes into artificial tear fluid, quantified via HPLC
Type: physicochemical
Settings: room temperature, 100 rpm
Description: 0.5 mL of unformulated compound 1 dissolved in artificial tear medium (i.e., equivalent to physiological buffer solution/PBS) was filled into dialysis tubes (Spectra/Por® Biotech CE MWCO 100-500, 10 mm), sealed and immersed into containers filled with 5 mL artificial tear fluid (ATF) serving as release medium (Table 2). The samples were incubated at room temperature and shaken at 100 rpm. After 0 hours, 0.5 hours, 1 hour, 2 hours, 4 hours and 24 hours, samples were withdrawn and the amount of released compound 1 was quantified via HPLC.

Release (%) (time point 0.5 h): 0.8%
Release (%) (time point 1 h): 2%
Release (%) (time point 2 h): 7%
Release (%) (time point 4 h): 17%
Release (%) (time point 24 h): 59%
Structure (SMILES): CC/C=C\C[C@H](O)\C=C/C=C/C=C/[C@H](O)C/C=C\C/C=C\CCC(=O)[O-].[Na+] [Compound 1, Sodium (4Z,7Z,10R,11E,13E,15Z,17S, 19Z)-10,17-dihydroxydocosa-4,7,11,13,15,19-hexaenoate]
